Measurements: patent US8536201B2, “Pesticidal arylpyrrolidines” (Bayer Intellectual Property GmbH, priority 2009, dated 2013)

Experiments:
Assay type in all cases: in vivo
[1] = tested on: Spodoptera litura; assay: Tobacco cutworm (Spodoptera litura) larvae, sweet potato leaf dip test; settings: 20 ppm; third instar larvae, treated sweet potato leaves, after 7 days
Protocol: Unless not mentioned otherwise, the test solutions were prepared as follows:
Solvent: dimethyl formamide, 3 parts by weight
Emulsifier: polyoxyethylene alkyl phenyl ether, 1 part by weight
To prepare the test solution, 1 part by weight of an active compound is mixed with the above-mentioned amount of solvent containing the above-mentioned amount of emulsifier, and the mixture is diluted with water to the desired concentration.
BIOLOGICAL TEST EXAMPLE 1.1
Tobacco Cutworm (Spodoptera litura) Larvae
Leaves of sweet potato were immersed in the test solution at the appropriate concentration, and the leaves were dried in air. The leaves were then placed in a petri dish having a diameter of 9 cm, and ten Spodoptera litura at third instar larvae were released therein. The petri dishes were placed in a temperature-controlled chamber at 25° C. After 2 days and 4 days more sweet potato leaves were added. After 7 days, the number of dead larvae was counted to calculate the insecticidal activity. An insecticidal activity of 100% means that all larvae were killed, whereas an insecticidal activity of 0% means that no larva was killed. In the current test, the results of two petri dishes for each treatment were averaged.

[2] = tested on: Aulacophora femoralis; assay: Cucurbit leaf beetle (Aulacophora femoralis) cucumber leaf dip test; settings: second instar larvae, treated cucumber leaves, after 7 days
Protocol: BIOLOGICAL TEST EXAMPLE 3
Cucurbit Leaf Beetle (Aulacophora femoralis)
Leaves of cucumber were immersed in the test solution at the appropriate concentration, and the leaves were dried in air. The leaves were then put in a plastic cup containing sterilized black soil and five Aulacophora femoralis at second instar larvae were released in the cup. The cups were placed in a temperature-controlled chamber at 25° C. After 7 days, the number of dead larvae was counted, and thus the insecticidal activity was calculated. An insecticidal activity of 100% means that all larvae were killed, whereas an insecticidal activity of 0% means that no larva was killed.

[3] = tested on: Spodoptera litura; assay: Tobacco cutworm (Spodoptera litura) larvae using artificial diet; settings: 20 ppm, 3rd-instar larvae
Protocol: BIOLOGICAL TEST EXAMPLE 1.2
Tobacco Cutworm (Spodoptera litura) Larvae Using Artificial Diet
2.3 g of artificial diet powder is put into a PET cup (7.5 cm diameter, 4 cm depth). The powder was leveled to make a layer in the bottom of the cup. 5 ml of a chemical solution is poured onto the powder and spread uniformly. The cup with treated diet powder is placed quiet to let the diet jell. Into each testing cup five 3rd-instar larvae were released. The testing cup is closed with the lid and placed in a temperature-controlled room at 25° C. and 50-60% R.H., 16L8D lighting conditions.
The mortality in % was determined according to the following criteria:
1 larva dead: 20% Efficacy
5 larvae dead: 100% Efficacy

[4] = tested on: Tetranychus urticae; assay: Two-spotted spider mite Tetranychus urticae spray test on kidney bean; settings: adult mites, after 7 days
Protocol: BIOLOGICAL TEST EXAMPLE 2
Two-Spotted Spider Mite Tetranychus urticae
50 to 100 adult mites of Tetranychus urticae were inoculated to leaves of kidney bean at two-leaf stage planted in a pot of 6 cm in diameter. After one day, test solution at the appropriate concentration was sprayed thereon in a sufficient amount using a spray gun. After the spraying, the plant pot was placed inside a greenhouse, and after 7 days, the acaricidal activity was calculated. An acaricidal activity of 100% means that all mites were killed, an acaricidal activity of 0% means that no mite was killed.

[5] = tested on: Ctenocephalides felis; assay: Ctenocephalides felis test (CTECFE), blood feeding; settings: 100 ppm in cattle blood; adult unfed fleas, after 2 days
Protocol: BIOLOGICAL TEST EXAMPLE 7
Ctenocephalides felis—Test (CTECFE)
Solvent: Dimethyl Sulfoxide
To produce a suitable preparation of active compound, 10 mg of active compound are dissolved in 0.5 ml solvent, and the concentrate is diluted with cattle blood to the desired concentration. Approximately 20 adult unfed (Ctenocephalides felis) are placed in flea chambers. The blood chamber, sealed with parafilm on the bottom, are filled with cattle blood supplied with compound solution and placed on top of the flea chamber, so that the fleas are able to suck the blood. The blood chamber is heated to 37° C. whereas the flea chamber is kept at room temperature.
After 2 days mortality in % is determined. 100% means that all the fleas have been killed; 0% means that none of the fleas have been killed.

Row | SMILES | insecticidal activity [1] [%] | insecticidal activity ([2]; 100 ppm) [%] | insecticidal activity [3] [%] | insecticidal activity ([2]; 20 ppm) [%] | insecticidal activity ([4]; 100 ppm) [%] | activity (mortality in %) [5] [%] | insecticidal activity ([4]; 20 ppm) [%]
1 | CC(=O)NC(C)c1ccc(N2CCC(c3cc(Cl)cc(Cl)c3)(C(F)(F)F)C2)cc1 (racemic) [Compound 1] | 100 | 100 | 100 | – | – | – | –
2 | CCC(=O)NC(C)c1ccc(N2CCC(c3cc(Cl)cc(Cl)c3)(C(F)(F)F)C2)cc1 (racemic) [Compound 2] | 100 | – | 100 | 100 | 100 | 95 | –
3 | CCC(=O)NC(C)c1ccc(N2CCC(c3cc(Cl)cc(C(F)(F)F)c3)(C(F)(F)F)C2)cc1 (racemic) [Compound 4] | 100 | – | 100 | 100 | – | – | 100
4 | CC(NC(=O)C1CC1)c1ccc(N2CCC(c3cc(Cl)cc(C(F)(F)F)c3)(C(F)(F)F)C2)cc1 (racemic) [Compound 5] | 100 | – | 100 | 100 | – | – | 100
5 | CC(=O)NC(C)c1ccc(N2CCC(c3cc(Cl)c(Cl)c(Cl)c3)(C(F)(F)F)C2)cc1 (racemic) [Compound 6] | 100 | – | 100 | – | – | – | 100
6 | CCC(=O)NC(C)c1ccc(N2CCC(c3cc(Cl)c(Cl)c(Cl)c3)(C(F)(F)F)C2)cc1 (racemic) [Compound 7] | 100 | 100 | 100 | – | – | – | 100
7 | CC(=O)NC(C)c1ccc(N2CCC(c3cc(C(F)(F)F)cc(C(F)(F)F)c3)(C(F)(F)F)C2)cc1 (racemic) [Compound 9] | 100 | – | 100 | – | – | – | –
8 | CC(NC(=O)C1CC1)c1ccc(N2CCC(c3cc(C(F)(F)F)cc(C(F)(F)F)c3)(C(F)(F)F)C2)cc1 (racemic) [Compound 11] | 100 | – | 100 | 100 | – | – | 100
9 | CC(NC(=O)CC1CC1)c1ccc(N2CCC(c3cc(Cl)c(Cl)c(Cl)c3)(C(F)(F)F)C2)cc1 (racemic) [Compound 12] | – | – | 100 | – | – | 95 | 100
10 | CC(NC(=O)CC1CC1)c1ccc(N2CCC(c3cc(C(F)(F)F)cc(C(F)(F)F)c3)(C(F)(F)F)C2)cc1 (racemic) [Compound 13] | – | – | 100 | – | – | – | 100
11 | COCCC(=O)NC(C)c1ccc(N2CCC(c3cc(Cl)c(Cl)c(Cl)c3)(C(F)(F)F)C2)cc1 (racemic) [Compound 14] | – | 100 | 100 | – | – | 90 | 100
12 | CC(=O)N[C@@H](C)c1ccc(N2CCC(c3cc(Cl)cc(Cl)c3)(C(F)(F)F)C2)cc1 (stereo partly shown) [Compound 1-b] | 100 | – | 100 | 100 | 100 | – | –
13 | CCC(=O)N[C@@H](C)c1ccc(N2CCC(c3cc(Cl)cc(Cl)c3)(C(F)(F)F)C2)cc1 (stereo partly shown) [Compound 2-b] | 100 | – | 100 | 100 | – | – | –
14 | CC(=O)NC(C)c1ccc(N2CCC(c3cc(Cl)cc(Cl)c3)(C(F)(F)F)C2)cc1Cl (stereo not shown) [Compound 3-66, reference compound] | 20 | – | – | 50 | – | – | –
15 | C[C@H](NC(=O)C1CC1)c1ccc(N2CCC(c3cc(Cl)cc(Cl)c3)(C(F)(F)F)C2)cc1 (stereo partly shown) [Compound 3-b] | 100 | – | 100 | 100 | – | – | 100
16 | CCC(=O)N[C@@H](C)c1ccc(N2CCC(c3cc(Cl)cc(C(F)(F)F)c3)(C(F)(F)F)C2)cc1 (stereo partly shown) [Compound 4-b] | 100 | – | 100 | 100 | – | – | 100
17 | C[C@H](NC(=O)C1CC1)c1ccc(N2CCC(c3cc(Cl)cc(C(F)(F)F)c3)(C(F)(F)F)C2)cc1 (stereo partly shown) [Compound 5-b] | 100 | – | 100 | 100 | – | – | 100
18 | CC(=O)N[C@@H](C)c1ccc(N2CCC(c3cc(Cl)c(Cl)c(Cl)c3)(C(F)(F)F)C2)cc1 (stereo partly shown) [Compound 6-b] | 100 | – | 100 | – | – | – | 100
19 | CCC(=O)N[C@H](C)c1ccc(N2CCC(c3cc(Cl)c(Cl)c(Cl)c3)(C(F)(F)F)C2)cc1 (stereo partly shown) [Compound 7-a] | – | 100 | – | – | – | 80 | –
20 | CCC(=O)N[C@@H](C)c1ccc(N2CCC(c3cc(Cl)c(Cl)c(Cl)c3)(C(F)(F)F)C2)cc1 (stereo partly shown) [Compound 7-b] | 100 | – | 100 | 100 | – | – | 100
21 | C[C@H](NC(=O)C1CC1)c1ccc(N2CCC(c3cc(Cl)c(Cl)c(Cl)c3)(C(F)(F)F)C2)cc1 (stereo partly shown) [Compound 8-b] | 100 | – | 100 | 100 | – | 95 | 100
22 | CCC(=O)N[C@H](C)c1ccc(N2CCC(c3cc(C(F)(F)F)cc(C(F)(F)F)c3)(C(F)(F)F)C2)cc1 (stereo partly shown) [Compound 10-a] | – | – | – | 100 | – | 90 | –
23 | CCC(=O)N[C@@H](C)c1ccc(N2CCC(c3cc(C(F)(F)F)cc(C(F)(F)F)c3)(C(F)(F)F)C2)cc1 (stereo partly shown) [Compound 10-b] | 100 | – | 100 | 100 | – | – | 100
24 | C[C@H](NC(=O)CC1CC1)c1ccc(N2CCC(c3cc(Cl)c(Cl)c(Cl)c3)(C(F)(F)F)C2)cc1 (stereo partly shown) [Compound 12-b] | – | 100 | 100 | – | – | – | 100
25 | C[C@H](NC(=O)CC1CC1)c1ccc(N2CCC(c3cc(C(F)(F)F)cc(C(F)(F)F)c3)(C(F)(F)F)C2)cc1 (stereo partly shown) [Compound 13-b] | – | 100 | 100 | – | – | – | 100
26 | COCCC(=O)N[C@@H](C)c1ccc(N2CCC(c3cc(Cl)c(Cl)c(Cl)c3)(C(F)(F)F)C2)cc1 (stereo partly shown) [Compound 14-b] | – | 100 | 100 | – | – | – | 100
27 | C[C@H](NC(=O)c1c(F)cc(F)cc1F)c1ccc(N2CCC(c3cc(C(F)(F)F)cc(C(F)(F)F)c3)(C(F)(F)F)C2)cc1 (stereo partly shown) [Compound 16-b] | – | – | 100 | 100 | – | – | 100
28 | C[C@H](NC(=O)C1CC1)c1ccc(N2CCC(c3cc(C(F)(F)F)nc(C(F)(F)F)c3)(C(F)(F)F)C2)cc1 (stereo partly drawn) [Compound 17-b, N-[(1S)-1-(4-{3-[2,6-bis(trifluoromethyl)pyridin-4-yl]-3-(trifluoromethyl)pyrrolidin-1-yl}phenyl)ethyl]cyclopropanecarboxamide] | – | – | 100 | 100 | – | – | 100
